Assay results published in paper PMC6273578, “Design, Synthesis and Biological Evaluation of Benzohydrazide Derivatives Containing Dihydropyrazoles as Potential EGFR Kinase Inhibitors” (Molecules, 2016).
Read-outs that look alike come from different tables or passages of the source.

How the values were obtained:
EGFR = conditions: read-out: EGFR inhibitory activity IC50, cited from earlier work
HeLa cells [1] = assay: MTT antiproliferative assay, HeLa; assay type: cell-based, human; conditions: Homo sapiens, read-out: In vitro antiproliferative activity IC50, HeLa
Description: (§1) IC50 values of the test compounds against A549, MCF-7, Hela and HepG2 cells were obtained from State Key Laboratory of Pharmaceutical Biotechnology, Nanjing University, and were determined by a standard (MTT)-based colorimetric assay (Beyotime Inst. Biotech., Nanjing, China). Tumor cell lines were grown to mid-log phase and then diluted to […] making sure they were seeded in 96-well plates (Philas, Nanjing, China) at a density of 5 × 10^3–1 × 10^4 cells per well. The outer wells containing 1 × PBS solution of the plate are not used for the assay to avoid the possibility of edge effects. The plate was incubated at 37 °C in a 5% CO2 incubator in DMEM containing 10% fetal bovine serum (FBS, Gibco, Waltham, MA, USA) for 24 h. Then, we added a 100-μL series concentration of drug-containing medium into the wells to maintain the final concentration of drug as 100, 10, 1 and 0.1 μmol/L. After 12 h, cell survival was determined by the addition of a MTT (3-(4,5-dimethylthiazol-2-yl)-2,5-diphenyl trtrazolium bromide) solution (10 μL of 5 mg/mL MTT in 1 × PBS). We waited for 4 h proliferation, discarded the medium and quickly added 150 μL DMSO per well, shaking the plates well for 10 min to ensure complete dissolution. Optical absorbance was measured at 570 nm on a microplate reader (Bio-Rad, Hercules, CA, USA). Survival ratios are expressed in percentages with respect to untreated cells. The experiments were replicated at least three times to verify the methodology reproducibility when using the above-mentioned conditions.

MCF-7 cells = assay: MTT antiproliferative assay, MCF-7; assay type: cell-based, human; conditions: Homo sapiens, MCF7, read-out: In vitro antiproliferative activity IC50, MCF-7
Description: as §1

HepG2 cells = assay: MTT antiproliferative assay, HepG2; assay type: cell-based, human; conditions: Homo sapiens, read-out: In vitro antiproliferative activity IC50, HepG2
Description: as §1

A549 cells = assay: MTT antiproliferative assay, A549; assay type: cell-based, human; conditions: Homo sapiens, read-out: In vitro antiproliferative activity IC50, A549
Description: as §1

[2] = Cytotoxicity test (MTT) on 293T cells; conditions: human, 293T human kidney epithelial cells
Description: The cytotoxic activity in vitro was measured by the colorimetric MTT assay. […] For the cytotoxicity assay, 20 μL of MTT (5 mg/mL) was added per well 4 h before the end of the incubation. After removing the supernatant, 200 μL DMSO was added to dissolve the formazan crystals. The absorbance at λ 570 nm was read on an LX300 Epson Diagnostic microplate reader, untreated cells were used as negative controls.

HeLa cells [3] = assay: Cell apoptosis assay by flow cytometry (Annexin V-FITC/PI); assay type: cell-based, human; conditions: 24 h
Description: To verify whether the inhibition of cell growth of HeLa cell lines was related to cell apoptosis, we decided to use flow cytometry with an Annexin V-FITC/PI Apoptosis Detection Kit to […] the HeLa cell apoptosis with compound H20.
For Annexin V/PI assays, HeLa cells were stained with Annexin VFITC and PI and then monitored for apoptosis by flow cytometry. Briefly, 5 × 10^3 cells were seeded in 6-well plates for 24 h and then were treated with H20 (2.0, 4.0, 6.0, 8.0 μM) for 24 h. Then, cells were collected and washed twice with PBS and stained with 5 μL Annexin V-FITC and 5 μL PI (5 μg/mL) in 1× binding buffer (10 mM HEPES, pH 7.4, 140 mM […], 2.5 mM CaCl2) for 15 min at room temperature in the dark. Apoptotic cells were quantified using a BD Accuri C6 Flow Cytometer (Becton, Dickinson and Company, Clifton, NJ, USA). Statistical analysis was done using Flowjo 7.6.1 software. Both early apoptotic (AnnexinV-positive, PI-negative) and late apoptotic (double positive of Annexin V and PI) cells were detected.

[4] = target: epidermal growth factor receptor (EGFR) (Homo sapiens, UniProt P00533); assay: EGFR kinase inhibition, solid-phase ELISA assay
Chain of epidermal growth factor receptor (EGFR) (P00533 25-1210): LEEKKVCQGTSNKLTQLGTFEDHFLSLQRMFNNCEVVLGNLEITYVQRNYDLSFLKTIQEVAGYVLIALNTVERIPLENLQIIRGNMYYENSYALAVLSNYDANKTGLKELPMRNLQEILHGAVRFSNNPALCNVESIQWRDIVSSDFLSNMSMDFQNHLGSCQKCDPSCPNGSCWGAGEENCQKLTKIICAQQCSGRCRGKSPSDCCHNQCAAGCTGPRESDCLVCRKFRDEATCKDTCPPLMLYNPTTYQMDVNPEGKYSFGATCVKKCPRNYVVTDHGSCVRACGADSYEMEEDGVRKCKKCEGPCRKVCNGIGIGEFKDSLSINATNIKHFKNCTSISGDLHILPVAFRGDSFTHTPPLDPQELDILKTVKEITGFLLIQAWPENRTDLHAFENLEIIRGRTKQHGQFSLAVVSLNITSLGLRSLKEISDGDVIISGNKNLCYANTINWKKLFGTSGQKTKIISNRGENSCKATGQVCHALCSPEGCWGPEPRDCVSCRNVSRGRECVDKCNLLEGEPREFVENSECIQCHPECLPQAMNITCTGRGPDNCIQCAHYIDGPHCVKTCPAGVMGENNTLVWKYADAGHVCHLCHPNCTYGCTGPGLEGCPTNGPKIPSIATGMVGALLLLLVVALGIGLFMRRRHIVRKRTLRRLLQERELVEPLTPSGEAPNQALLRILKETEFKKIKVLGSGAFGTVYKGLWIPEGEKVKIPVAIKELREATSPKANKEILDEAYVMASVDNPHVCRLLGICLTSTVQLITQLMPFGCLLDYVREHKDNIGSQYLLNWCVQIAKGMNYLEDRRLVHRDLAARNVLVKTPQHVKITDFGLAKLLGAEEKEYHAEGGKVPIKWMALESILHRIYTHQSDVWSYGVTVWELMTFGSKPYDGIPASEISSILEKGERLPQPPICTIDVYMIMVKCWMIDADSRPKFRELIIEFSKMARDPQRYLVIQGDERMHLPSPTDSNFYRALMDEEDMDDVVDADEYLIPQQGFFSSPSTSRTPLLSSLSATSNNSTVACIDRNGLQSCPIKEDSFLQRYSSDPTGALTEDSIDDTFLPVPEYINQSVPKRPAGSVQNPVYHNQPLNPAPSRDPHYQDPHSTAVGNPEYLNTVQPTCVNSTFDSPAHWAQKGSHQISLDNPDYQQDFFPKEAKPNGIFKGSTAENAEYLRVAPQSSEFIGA
Description: All these newly synthesized compounds were evaluated for their inhibitory activities against EGFR kinases using a solid-phase ELISA assay.
EGFR tyrosine kinase activity was determined by an enzyme linked-immunosorbent assay (ELISA) in 96-well plates precoated in a 10 mL reaction volume including 4 mL diluted test compounds, 4 mL substrate and 2 mL ATP. […] The plates were then aspirated and washed twice with 200 mL 0.9% (w/v) NaCl, and incorporation of Pi was determined with an LX300 Epson Diagnostic microplate reader. […] The experiments were replicated at least three times to verify the methodology reproducibility when using the above-mentioned conditions.

COc1ccc(C2CC(c3ccc(C)c(C)c3)=NN2C(N)=S)cc1 (stereo not shown) [a]
IC50 (EGFR; reported compounds of Figure 1): 70 nM

COc1ccc(/C=N/NC(=O)c2ccc(N3N=C(c4ccc(C)cc4)CC3c3ccc4ccccc4c3)cc2)cc1 (stereo not shown) [Compound H20, (E)-N′-(4-Methoxybenzylidene)-4-(5-(naphthalen-2-yl)-3-(p-tolyl)-4,5-dihydro-1H-pyrazol-1-yl)benzo-hydrazide]
IC50 (HeLa cells [1]): 150 nM | IC50 (MCF-7 cells): 290 nM | IC50 (HepG2 cells): 210 nM | IC50 (A549 cells): 460 nM | CC50 at 24 h [2]: 89900 nM | percentage of cell apoptosis (HeLa cells [3]; 2.0 μM): 28.7% | percentage of cell apoptosis (HeLa cells [3]; 4.0 μM): 34.9% | percentage of cell apoptosis (HeLa cells [3]; 6.0 μM): 47.2% | percentage of cell apoptosis (HeLa cells [3]; 8.0 μM): 58.12% | melting point: 241 to 243 °C | IC50 [4]: 80 nM

Cc1ccc(C2=NN(C3=NC(=O)CS3)C(c3ccc4ccccc4c3)C2)cc1C (stereo not shown) [Compound e]
IC50 (EGFR; reported compound of Figure 1): 120 nM

Cc1ccc(C2=NN(C3=NC(=O)CS3)C(c3ccc(Br)cc3)C2)cc1 (stereo not shown) [b]
IC50 (EGFR; reported compounds of Figure 1): 240 nM

Cc1ccc(C2=NN(c3ncc(-c4ccc(Cl)cc4)s3)C(c3ccc(F)cc3)C2)cc1C (stereo not shown) [c]
IC50 (EGFR; reported compounds of Figure 1): 60 nM

CC(=O)N1N=C(c2ccc(C(F)(F)F)cc2)CC1c1ccc(C(=O)OCC(C)n2c([N+](=O)[O-])cnc2C)cc1 (stereo not shown) [d]
IC50 (EGFR; reported compounds of Figure 1): 260 nM
